Laboratory results from the Deep4Chem optical property database.
Each block holds one molecule with its values, some of them ahead of it.

Experiment: photoluminescence quantum yield (fraction); solvent given as SMILES

SMILES: COC(=O)C(Cc1ccc2oc(-c3ccc4c(c3)c3ccccc3n4-c3ccccc3)nc2c1)NC(=O)OC(C)(C)C (configuration not stated)
photoluminescence quantum yield (in C1CCCCC1): 0.76
photoluminescence quantum yield (in C1CCOC1): 0.84
photoluminescence quantum yield (in C1COCCO1): 1
photoluminescence quantum yield (in CC1CCCO1): 0.93
photoluminescence quantum yield (in CC1COC(=O)O1): 1
photoluminescence quantum yield (in CC#N): 0.99
photoluminescence quantum yield (in CC(C)=O): 0.63
photoluminescence quantum yield (in CC(C)CC(C)(C)C): 0.86
photoluminescence quantum yield (in CC(C)CO): 1
photoluminescence quantum yield (in CC(C)O): 1
photoluminescence quantum yield (in CC(C)OC(C)C): 0.55
photoluminescence quantum yield (in CC(O)CO): 1
photoluminescence quantum yield (in CCC(C)CC): 0.59
photoluminescence quantum yield (in CCCCC): 0.59
photoluminescence quantum yield (in CCCCCC): 0.58
photoluminescence quantum yield (in CCCCCCCCC): 0.72
photoluminescence quantum yield (in CCCCCCCCCC): 0.75
photoluminescence quantum yield (in CCCCCCCO): 1
photoluminescence quantum yield (in CCCCCCO): 0.94
photoluminescence quantum yield (in CCCCCO): 1
photoluminescence quantum yield (in CCCCO): 1
photoluminescence quantum yield (in CCO): 1
photoluminescence quantum yield (in CCOC(C)=O): 0.96
photoluminescence quantum yield (in CCOCC): 0.68
photoluminescence quantum yield (in CN(C)C=O): 1
photoluminescence quantum yield (in CO): 0.99
photoluminescence quantum yield (in COCCOC): 0.7
photoluminescence quantum yield (in CS(C)=O): 0.88
photoluminescence quantum yield (in Cc1ccccc1): 0.78
photoluminescence quantum yield (in Cc1ccccc1C): 0.92
photoluminescence quantum yield (in ClC(Cl)Cl): 0.93
photoluminescence quantum yield (in ClCCl): 0.94
photoluminescence quantum yield (in NC=O): 0.82
photoluminescence quantum yield (in OC1CCCCC1): 0.95
photoluminescence quantum yield (in OCCO): 1
photoluminescence quantum yield (in c1ccccc1): 0.97

SMILES: CCCCCCCCCCOc1ccc2c3c(oc2c1)C1=C2C(=O)N4C=Cc5c(oc6cc(OCCCCCCCCCC)ccc56)C4=C2C(=O)N1C=C3
photoluminescence quantum yield (in CN(C)C=O): 0.5
photoluminescence quantum yield (in ClC(Cl)Cl): 0.7

SMILES: Cc1cc(C)c([B-]2(c3c(C)cc(C)cc3C)[O+]=P(c3ccccc3)(c3ccccc3)c3cc(C#Cc4ccccc4)sc3-c3sc(C#Cc4ccccc4)cc32)c(C)c1
photoluminescence quantum yield (in C1CCOC1): 0.063

SMILES: CC(C)(C)c1ccc(C#Cc2cc(C#Cc3ccc(C(C)(C)C)cc3)c(C#Cc3ccc(C(C)(C)C)cc3)c(C#Cc3ccc(C(C)(C)C)cc3)c2C#Cc2ccc(C(C)(C)C)cc2)cc1
photoluminescence quantum yield (in ClCCl): 0.41

SMILES: C(#Cc1c(C#Cc2cccs2)c(C#Cc2cccs2)c(C#Cc2cccs2)c(C#Cc2cccs2)c1C#Cc1cccs1)c1cccs1
photoluminescence quantum yield (in ClCCl): 0.27

SMILES: c1ccc2[nH]c(-c3ccc(-c4ccc(-c5ccc(-c6nc7ccccc7[nH]6)cc5)cc4)cc3)nc2c1
photoluminescence quantum yield (in CN(C)C=O): 0.88

SMILES: COc1cc(C(=O)O)cc(OC)c1O
photoluminescence quantum yield (in O): 0.009

SMILES: CCC1=C(C)C2=Cc3c4ccccc4c4n3[B-](c3ccc5ccc6cccc7ccc3c5c67)(Oc3ccccc3-4)[N+]2=C1C (configuration not stated)
photoluminescence quantum yield (in CC#N): 0.66
photoluminescence quantum yield (in CCCCCC): 0.72
photoluminescence quantum yield (in Cc1ccccc1): 0.66
photoluminescence quantum yield (in ClCCl): 0.71

SMILES: Cc1ccc(-n2c(-c3cccc4cc[n-]c34)[nH+]c3c4ccccc4c4ccccc4c32)cc1
photoluminescence quantum yield (in Cc1ccccc1): 0.015

SMILES: CC(C)[Si]1(C(C)C)c2cc(C#N)ccc2-c2ccc(N(C)C)cc21
photoluminescence quantum yield (in C1CCCCC1): 0.6
photoluminescence quantum yield (in CC#N): 0.65
photoluminescence quantum yield (in CCO): 0.74
photoluminescence quantum yield (in CCOCC): 0.66
photoluminescence quantum yield (in CS(C)=O): 0.51
photoluminescence quantum yield (in ClCCl): 0.79
photoluminescence quantum yield (in c1ccccc1): 0.62

SMILES: CC1=CC(C)=[N+]2C1=C(c1ccc(C(=O)OC3C[C@@H]4CC[C@]3(C)C4(C)C)cc1)c1c(C)cc(C)n1[B-]2(F)F (some centres not stated)
photoluminescence quantum yield (in Cc1ccccc1): 0.37

SMILES: O=c1c2ccccc2[nH]c2ccccc12
photoluminescence quantum yield (in CS(C)=O): 0.75

SMILES: CC(=O)c1nc(-c2ccc(N(C)C)cc2)oc1C
photoluminescence quantum yield (in CC#N): 0.029
photoluminescence quantum yield (in CCO): 0.019
photoluminescence quantum yield (in CCOC(C)=O): 0.03
photoluminescence quantum yield (in CCOCC): 0.016
photoluminescence quantum yield (in ClCCl): 0.044

SMILES: CN(C)c1ccc(/C=C/C=N/N=C/c2ccc3ccc4cccc5ccc2c3c45)cc1
photoluminescence quantum yield (in CC#N): 0.032
photoluminescence quantum yield (in CC(C)(C)O): 0.02
photoluminescence quantum yield (in CC(C)=O): 0.01
photoluminescence quantum yield (in CC(C)O): 0.015
photoluminescence quantum yield (in CCCCO): 0.018
photoluminescence quantum yield (in CO): 0.025
photoluminescence quantum yield (in CS(C)=O): 0.044
photoluminescence quantum yield (in ClC(Cl)Cl): 0.007
photoluminescence quantum yield (in ClCCl): 0.008
photoluminescence quantum yield (in O): 0.016

SMILES: CN(C)c1ccc(-c2ccc(C#N)s2)s1
photoluminescence quantum yield (in CCO): 0.23

SMILES: c1cc(-c2c3ccccc3c(-c3ccc4ccccc4c3)c3ccccc23)cc(-n2c3ccccc3c3ccccc32)c1
photoluminescence quantum yield (in ClCCl): 0.73

SMILES: c1ccc(N2c3ccc4ccccc4c3-c3c4ccccc4cc[n+]3[B-]2(c2ccccc2)c2ccccc2)cc1
photoluminescence quantum yield (in Cc1ccccc1): 0.17

SMILES: O=C1OC(c2ccccc2)=N/C1=C\c1ccc(N(c2ccccc2)c2ccccc2)cc1
photoluminescence quantum yield (in C1CCCCC1): 0.031
photoluminescence quantum yield (in C1CCOC1): 0.108
photoluminescence quantum yield (in C1COCCO1): 0.045
photoluminescence quantum yield (in CC1CCCCC1): 0.043
photoluminescence quantum yield (in CC#N): 0.014
photoluminescence quantum yield (in CC(C)=O): 0.055
photoluminescence quantum yield (in CC(C)CC(C)(C)C): 0.028
photoluminescence quantum yield (in CCCCC): 0.029
photoluminescence quantum yield (in CCCCCC): 0.031
photoluminescence quantum yield (in CCCCCCC): 0.034
photoluminescence quantum yield (in CCCCOCCCC): 0.036
photoluminescence quantum yield (in CCOC(C)=O): 0.095
photoluminescence quantum yield (in CCOCC): 0.072
photoluminescence quantum yield (in CN(C)C=O): 0.014
photoluminescence quantum yield (in CS(C)=O): 0.012
photoluminescence quantum yield (in Cc1ccccc1): 0.034
photoluminescence quantum yield (in ClC(Cl)Cl): 0.028

SMILES: COc1ccc(C2=CC(c3ccc4ccccc4c3)=[O+][B-](C(C)=O)(C(C)=O)O2)cc1
photoluminescence quantum yield (in CC#N): 0.6
photoluminescence quantum yield (in ClC(Cl)(Cl)Cl): 0.8

SMILES: O=C1c2ccccc2C(=O)c2cc(-c3ccc(N(c4ccccc4)c4ccccc4)cc3)ccc21
photoluminescence quantum yield (in CCCCCC): 0.392
photoluminescence quantum yield (in CCOC(C)=O): 0.0001
photoluminescence quantum yield (in CCOCC): 0.0129
photoluminescence quantum yield (in Cc1ccccc1): 0.092
photoluminescence quantum yield (in ClC(Cl)(Cl)Cl): 0.326
photoluminescence quantum yield (in ClCCl): 0

SMILES: COC(=O)[C@H](Cc1ccc2oc3c(c2c1)=CC1=C(c2ccc(OC)cc2)c2cc4c5cc(C[C@H](NC(=O)OC(C)(C)C)C(=O)OC)ccc5oc4n2[B-](F)(F)[N+]=31)NC(=O)OC(C)(C)C
photoluminescence quantum yield (in C1CCCCC1): 0.81
photoluminescence quantum yield (in CCOC(C)=O): 0.86
photoluminescence quantum yield (in CO): 0.82

SMILES: Nc1cccc2cccc(N)c12
photoluminescence quantum yield (in CC#N): 0.1
photoluminescence quantum yield (in CO): 0.09
photoluminescence quantum yield (in CS(C)=O): 0.3
photoluminescence quantum yield (in Cc1ccccc1): 0.13

SMILES: CC(C)(C)c1ccc2c(c1)c1cc(C(C)(C)C)ccc1n2-c1ccc(N(c2ccc(-c3ccc(-c4ccc(-c5ccc(-c6ccc(N(c7ccc(-n8c9ccc(C(C)(C)C)cc9c9cc(C(C)(C)C)ccc98)cc7)c7ccc(-n8c9ccc(C(C)(C)C)cc9c9cc(C(C)(C)C)ccc98)cc7)cc6)cc5)c5nsnc45)cc3)cc2)c2ccc(-n3c4ccc(C(C)(C)C)cc4c4cc(C(C)(C)C)ccc43)cc2)cc1
photoluminescence quantum yield (in ClCCl): 0.03

Second part, the molecule after the results:

photoluminescence quantum yield (in CS(C)=O): 0.66
SMILES: CCCCCCCCn1c2ccccc2c(=O)c2ccccc21

photoluminescence quantum yield (in C1CCCCC1): 0.89
photoluminescence quantum yield (in CCOC(C)=O): 0.16
SMILES: CC1=[N+]2C(=C(Oc3ccccc3)c3ccc(C)n3[B-]2(F)F)C=C1c1cc2n(c1)[B-](F)(F)[N+]1=CC=CC1=C2c1c(C)cc(C)cc1C

photoluminescence quantum yield (in C1CCCCC1): 0.42
SMILES: C=CB1C=Cc2ccc3ccccc3c2N1

photoluminescence quantum yield (in CCCCCC): 0.45
photoluminescence quantum yield (in CO): 0.55
photoluminescence quantum yield (in ClCCl): 0.39
SMILES: CC(C)c1ccc2ccc3c(C(C)C)ccc4ccc1c2c43

photoluminescence quantum yield (in CCO): 0.83
photoluminescence quantum yield (in O): 0.64
SMILES: O=C([O-])c1ccc(C(=O)[O-])c(C2=c3cc4c5c(c3Oc3c2cc2c6c3CCCN6CCC2)CCC[N+]=5CCC4)c1

photoluminescence quantum yield (in ClCCl): 0.5
SMILES: COc1ccc(-c2ccc(-c3cc(-c4ccccn4)nc(-c4ccccn4)c3)cc2)cc1

photoluminescence quantum yield (in C1CCCCC1): 0.05
photoluminescence quantum yield (in CO): 0.74
photoluminescence quantum yield (in CS(C)=O): 0.84
photoluminescence quantum yield (in ClC(Cl)Cl): 0.78
photoluminescence quantum yield (in c1ccccc1): 0.22
SMILES: CCC1=C(C)C(=O)n2c1cc1c(c(C)c(C(=O)OCC(C)C)n1CC(C)C)c2=O

photoluminescence quantum yield (in CO): 0.007
SMILES: Cc1ccc2nnn(-c3c(C#N)c4c(N)ncnc4n3[C@H]3C[C@H](O)[C@@H](CO)O3)c2c1

photoluminescence quantum yield (in O): 0.31
SMILES: Cc1ccccc1C1=C2C=CC(=[N+](C)C)C=C2[Si](C)(C)c2cc(N(C)C)ccc21

photoluminescence quantum yield (in C1CCOC1): 0.34
photoluminescence quantum yield (in CS(C)=O): 0.07
photoluminescence quantum yield (in ClCCl): 0.33
SMILES: CCN(CC)c1ccc2cc(-c3csc(NC(C)=O)c3C#N)c(=O)oc2c1

photoluminescence quantum yield (in C1CCOC1): 0.58
SMILES: Cc1cc(C)c([B-]2(c3c(C)cc(C)cc3C)[O+]=P(c3ccccc3)(c3ccccc3)c3cc(-c4ccccc4)sc3-c3sc(-c4ccccc4)cc32)c(C)c1

photoluminescence quantum yield (in C1CCOC1): 0.013
SMILES: F[B-]1(F)OC(c2ccccc2)=C(c2ccccc2)c2oc3ccccc3[n+]21

photoluminescence quantum yield (in C1CCCCC1): 0.11
photoluminescence quantum yield (in CC#N): 0.54
photoluminescence quantum yield (in CO): 0.046
photoluminescence quantum yield (in ClC(Cl)Cl): 0.82
SMILES: CC(=O)c1ccc(-c2nc3ccc(N(C)C)c(Br)c3s2)cc1

photoluminescence quantum yield (in C1CCCCC1): 0.02
photoluminescence quantum yield (in CO): 0.73
photoluminescence quantum yield (in CS(C)=O): 0.83
photoluminescence quantum yield (in ClC(Cl)Cl): 0.52
photoluminescence quantum yield (in c1ccccc1): 0.1
SMILES: CCCCCCCC1=C(C)C(=O)n2c1cc1[nH]c(C(=O)OC)c(C)c1c2=O

photoluminescence quantum yield (in ClCCl): 0.29
SMILES: Cc1cccc(C)c1/C=C/c1nc(N2CCOCC2)c2c([n+]1[O-])CCCC2

photoluminescence quantum yield (in c1cc(-c2cccc(-n3c4ccccc4c4ccccc43)c2)cc(-n2c3ccccc3c3ccccc32)c1): 0.98
SMILES: Cc1cc(-c2nc(-c3ccccc3)nc(-c3ccccc3)n2)c(C)cc1-c1ccc2c(c1)C1(c3ccccc3-c3ccccc31)c1ccccc1N2c1ccccc1

photoluminescence quantum yield (in ClCCl): 0.34
SMILES: CCOCCOCCOC(=O)/C=C/C1=CC2=C(c3c(C)cc(C)cc3C)c3cc(/C=C/C(=O)OCCOCCOCC)cn3[B-](F)(F)[N+]2=C1

photoluminescence quantum yield (in C1CCCCC1): 0.84
photoluminescence quantum yield (in CC#N): 0.73
photoluminescence quantum yield (in CO): 0.55
photoluminescence quantum yield (in ClCCl): 0.64
SMILES: C(C#Cc1ccc2ccc3cccc4ccc1c2c34)#Cc1cccc2ccccc12

photoluminescence quantum yield (in CO): 0.005
SMILES: N#Cc1c(-n2nnc3c2-c2ccccc2CN(C(=O)CCN)c2ccccc2-3)n([C@H]2C[C@H](O)[C@@H](CO)O2)c2ncnc(N)c12
